Assay results: US12077503B2, “Substituted cyclic amides and their use as herbicides” (FMC CORPORATION, priority 2015, dated 2024)

Experiments:
Assay in all cases: Test C preemergence
Assay type in all cases: in vivo
[1] = tested on: ryegrass, Italian (Italian ryegrass, Lolium multiflorum); conditions: for Plant response rating, Ryegrass, Italian: scale 0 to 100, 0 no effect, 100 complete control
In short: (§1)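 Scores of 0 to 100 reflect visual comparison with control plants, where 0 means no effect and 100 complete control, made 13 to 15 d after treatment. Application was preemergence to seeds in loam-sand soil or postemergence to plants 2 to 18 cm tall in peat-based mix, using a surfactant-containing solvent formulation.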

[2] = tested on: crabgrass, large (large crabgrass, Digitaria sanguinalis); conditions: for Plant response rating, Crabgrass, Large: scale 0 to 100, 0 no effect, 100 complete control
In short: as §1

corn (Zea mays) = conditions: for Plant response rating, Corn: scale 0 to 100, 0 no effect, 100 complete control
In short: as §1

[3] = tested on: oilseed rape (Brassica napus); conditions: for Plant response rating, Oilseed Rape: scale 0 to 100, 0 no effect, 100 complete control
In short: as §1

[4] = tested on: barnyardgrass (Echinochloa crus-galli); conditions: for Plant response rating, Barnyardgrass: scale 0 to 100, 0 no effect, 100 complete control
In short: as §1

soybean (Glycine max) = conditions: for Plant response rating, Soybean: scale 0 to 100, 0 no effect, 100 complete control
In short: as §1

[5] = tested on: Galium (catchweed bedstraw, Galium aparine); conditions: for Plant response rating, Galium: scale 0 to 100, 0 no effect, 100 complete control
In short: as §1

[6] = tested on: ragweed (common ragweed, Ambrosia elatior); conditions: for Plant response rating, Ragweed: scale 0 to 100, 0 no effect, 100 complete control
In short: as §1

[7] = tested on: pigweed (Amaranthus retroflexus); conditions: for Plant response rating, Pigweed: scale 0 to 100, 0 no effect, 100 complete control
In short: as §1

[8] = tested on: blackgrass (Alopecurus myosuroides); conditions: for Plant response rating, Blackgrass: scale 0 to 100, 0 no effect, 100 complete control
In short: as §1

[9] = tested on: nutsedge, yellow (yellow nutsedge, Cyperus esculentus); conditions: for Plant response rating, Nutsedge, Yellow: scale 0 to 100, 0 no effect, 100 complete control
In short: as §1

[10] = tested on: lambsquarters (Chenopodium album); conditions: for Plant response rating, Lambsquarters: scale 0 to 100, 0 no effect, 100 complete control
In short: as §1

[11] = tested on: foxtail, giant (giant foxtail, Setaria faberii); conditions: for Plant response rating, Foxtail, Giant: scale 0 to 100, 0 no effect, 100 complete control
In short: as §1

[12] = tested on: morningglory (Ipomoea coccinea); conditions: for Plant response rating, Morningglory: scale 0 to 100, 0 no effect, 100 complete control
In short: as §1

[13] = tested on: wheat (winter wheat, Triticum aestivum); conditions: for Plant response rating, Wheat: scale 0 to 100, 0 no effect, 100 complete control
In short: as §1

[14] = tested on: velvetleaf (Abutilon theophrasti); conditions: for Plant response rating, Velvetleaf: scale 0 to 100, 0 no effect, 100 complete control
In short: as §1

[15] = tested on: johnsongrass (Sorghum halepense); conditions: for Plant response rating, Johnsongrass: scale 0 to 100, 0 no effect, 100 complete control
In short: as §1

[16] = tested on: waterhemp (common waterhemp, Amaranthus rudis); conditions: for Plant response rating, Waterhemp: scale 0 to 100, 0 no effect, 100 complete control
In short: as §1

[17] = 31 g ai/ha, 0 is no effect, 100 is complete control

O=C1NCC(c2cccc(C(F)(F)F)c2F)C1C(=O)Nc1cccc(F)c1F (stereo not drawn) [Compound 591]
Plant response rating (scale of 0 to 100), Ryegrass, Italian [1, 17]: 0
Plant response rating, Ryegrass, Italian ([1]; 62 g ai/ha): 10
Plant response rating, Ryegrass, Italian ([1]; 125 g ai/ha): 35
Plant response rating, Ryegrass, Italian ([1]; 250 g ai/ha): 75
Plant response rating (scale of 0 to 100), Crabgrass, Large [2, 17]: 90
Plant response rating, Crabgrass, Large ([2]; 62 g ai/ha): 90
Plant response rating, Crabgrass, Large ([2]; 125 g ai/ha): 90
Plant response rating, Crabgrass, Large ([2]; 250 g ai/ha): 95
Plant response rating (scale of 0 to 100), Corn (corn (Zea mays); [17]): 45
Plant response rating, Corn (corn (Zea mays); 62 g ai/ha): 70
Plant response rating, Corn (corn (Zea mays); 125 g ai/ha): 60
Plant response rating, Corn (corn (Zea mays); 250 g ai/ha): 80
Plant response rating (scale of 0 to 100), Oilseed Rape [3, 17]: 5
Plant response rating, Oilseed Rape ([3]; 62 g ai/ha): 20
Plant response rating, Oilseed Rape ([3]; 125 g ai/ha): 30
Plant response rating, Oilseed Rape ([3]; 250 g ai/ha): 85
Plant response rating (scale of 0 to 100), Barnyardgrass [4, 17]: 90
Plant response rating, Barnyardgrass ([4]; 62 g ai/ha): 90
Plant response rating, Barnyardgrass ([4]; 125 g ai/ha): 95
Plant response rating, Barnyardgrass ([4]; 250 g ai/ha): 95
Plant response rating (scale of 0 to 100), Soybean (soybean (Glycine max); [17]): 0
Plant response rating, Soybean (soybean (Glycine max); 62 g ai/ha): 0
Plant response rating, Soybean (soybean (Glycine max); 125 g ai/ha): 0
Plant response rating, Soybean (soybean (Glycine max); 250 g ai/ha): 0
Plant response rating (scale of 0 to 100), Galium [5, 17]: 5
Plant response rating, Galium ([5]; 62 g ai/ha): 50
Plant response rating, Galium ([5]; 125 g ai/ha): 50
Plant response rating, Galium ([5]; 250 g ai/ha): 80
Plant response rating (scale of 0 to 100), Ragweed [6, 17]: 0
Plant response rating, Ragweed ([6]; 62 g ai/ha): 20
Plant response rating, Ragweed ([6]; 125 g ai/ha): 35
Plant response rating, Ragweed ([6]; 250 g ai/ha): 70
Plant response rating (scale of 0 to 100), Pigweed [7, 17]: 10
Plant response rating, Pigweed ([7]; 62 g ai/ha): 45
Plant response rating, Pigweed ([7]; 125 g ai/ha): 60
Plant response rating, Pigweed ([7]; 250 g ai/ha): 75
Plant response rating (scale of 0 to 100), Blackgrass [8, 17]: 30
Plant response rating, Blackgrass ([8]; 62 g ai/ha): 85
Plant response rating, Blackgrass ([8]; 125 g ai/ha): 90
Plant response rating, Blackgrass ([8]; 250 g ai/ha): 90
Plant response rating (scale of 0 to 100), Nutsedge, Yellow [9, 17]: 0
Plant response rating, Nutsedge, Yellow ([9]; 62 g ai/ha): 0
Plant response rating, Nutsedge, Yellow ([9]; 125 g ai/ha): 0
Plant response rating, Nutsedge, Yellow ([9]; 250 g ai/ha): 0
Plant response rating (scale of 0 to 100), Lambsquarters [10, 17]: 10
Plant response rating, Lambsquarters ([10]; 62 g ai/ha): 20
Plant response rating, Lambsquarters ([10]; 125 g ai/ha): 35
Plant response rating, Lambsquarters ([10]; 250 g ai/ha): 70
Plant response rating (scale of 0 to 100), Foxtail, Giant [11, 17]: 85
Plant response rating, Foxtail, Giant ([11]; 62 g ai/ha): 90
Plant response rating, Foxtail, Giant ([11]; 125 g ai/ha): 90
Plant response rating, Foxtail, Giant ([11]; 250 g ai/ha): 95
Plant response rating (scale of 0 to 100), Morningglory [12, 17]: 10
Plant response rating, Morningglory ([12]; 62 g ai/ha): 30
Plant response rating, Morningglory ([12]; 125 g ai/ha): 40
Plant response rating, Morningglory ([12]; 250 g ai/ha): 65
Plant response rating (scale of 0 to 100), Wheat [13, 17]: 0
Plant response rating, Wheat ([13]; 62 g ai/ha): 10
Plant response rating, Wheat ([13]; 125 g ai/ha): 30
Plant response rating, Wheat ([13]; 250 g ai/ha): 70
Plant response rating (scale of 0 to 100), Velvetleaf [14, 17]: 0
Plant response rating, Velvetleaf ([14]; 62 g ai/ha): 0
Plant response rating, Velvetleaf ([14]; 125 g ai/ha): 20
Plant response rating, Velvetleaf ([14]; 250 g ai/ha): 20
Plant response rating (scale of 0 to 100), Johnsongrass [15, 17]: 35
Plant response rating, Johnsongrass ([15]; 62 g ai/ha): 55
Plant response rating, Johnsongrass ([15]; 125 g ai/ha): 75
Plant response rating, Johnsongrass ([15]; 250 g ai/ha): 85
Plant response rating (scale of 0 to 100), Waterhemp [16, 17]: 5
Plant response rating, Waterhemp ([16]; 62 g ai/ha): 30
Plant response rating, Waterhemp ([16]; 125 g ai/ha): 65
Plant response rating, Waterhemp ([16]; 250 g ai/ha): 70
